Legend:
MAC16 tumor = conditions: cited from earlier work; for loss of body weight of mice bearing MAC-16 tumor: Eley et al., Biochem J. 2007; for tumor growth in mice bearing the MAC16 tumor: literature reports
[1] = test system: human pancreatic cancer cells; conditions: in vitro, literature reports; cited from earlier work
MAC16 cells = test: Cell growth assay, MAC16 cells in vitro; type: cell-based, mouse
MAC13 cells = test: Cell growth assay, MAC13 cells in vitro; type: cell-based, mouse; conditions: concentration up to 1000 nM (FIG. 2)
Protocol: The MAC16 and MAC13 tumors were propagated in vitro in RPMI 1640 medium containing 10% FCS at 37° C., under an atmosphere of 5% CO2 in air. For cell growth assays, cells were seeded at either 0.5×10^5 cells per well (MAC13) or 1×10^5 cells per well (MAC16) in 24 well multi-well dishes and allowed to accumulate for 24 h prior to drug addition. Cell number was determined three days later, whilst the cells were in exponential growth.

PKR [2] = target: T1, PKR (Mus musculus, UniProt Q03963); test: Western blot of phospho and total PKR in MAC16 cells; type: cell-based
T1 construct: endogenous in cells; host or cells: MAC16 and MAC13 murine colon adenocarcinoma cells in culture
T1 sequence (Q03963 1-515): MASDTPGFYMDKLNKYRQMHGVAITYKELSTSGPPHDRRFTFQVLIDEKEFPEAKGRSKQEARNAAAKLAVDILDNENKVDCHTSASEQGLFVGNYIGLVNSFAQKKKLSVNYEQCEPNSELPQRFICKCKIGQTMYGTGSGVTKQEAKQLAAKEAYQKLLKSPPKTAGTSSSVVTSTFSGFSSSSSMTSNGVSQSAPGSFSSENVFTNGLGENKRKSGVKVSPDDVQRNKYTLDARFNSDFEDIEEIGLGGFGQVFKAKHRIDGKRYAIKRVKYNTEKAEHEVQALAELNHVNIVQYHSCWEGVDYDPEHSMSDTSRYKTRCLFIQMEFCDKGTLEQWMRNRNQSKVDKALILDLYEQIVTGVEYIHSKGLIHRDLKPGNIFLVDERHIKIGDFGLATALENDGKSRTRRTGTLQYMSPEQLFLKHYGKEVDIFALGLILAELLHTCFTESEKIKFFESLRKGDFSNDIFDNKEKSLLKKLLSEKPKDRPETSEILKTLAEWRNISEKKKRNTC
Protocol: (§1) Samples (approximately 10 mg) of tumor were homogenised in 500 μl of PhosphoSafe™ Extraction Reagent and centrifuged at 15,000 g for 15 min at 4° C. Portions of cytosolic protein (10 μg) were resolved on 10% sodium dodecyl sulphate/polyacrylamide gels (SDS/PAGE; 6% for eIF2α). The resolved proteins were transferred onto 0.45 μm nitrocellulose membranes, which had been blocked with 5% Marvel in Tris-buffered saline, pH 7.5, at 4° C. overnight. Membranes were then washed for 15 min in 0.5% Tween-buffered saline, or TBS-Tween, prior to the addition of primary antibodies. The primary antibodies were used at a dilution of 1:1000, except for phospho eIF2α, which was used at 1:500. The primary antibodies were washed off the membranes for 15 min, with buffer changes every 5 min, using 0.1% TBS-Tween. The secondary antibodies were used at a dilution of 1:1000, and were washed off after 45 min. Development was by ECL, and films were developed for 3-6 min. Blots were scanned by a densitometer to quantify differences.

PKR [3] = target: T1, PKR; test: Western blot of phospho and total PKR in MAC13 cells; type: cell-based
Protocol: as §1

PKR [4] = target: T1, PKR; test: Western blot of phospho and total PKR in MAC16 tumor from treated mice; type: in vivo; conditions: mice bearing MAC16 tumor
Text: (§2) Both the MAC16 and MAC13 tumors were passaged in vivo in NMRI mice by transplanting fragments subcutaneously (s.c.) into the flank, as described in Bibby et al., J. Natl. Cancer Inst., 78(3):539-546, 1987. To maintain cachexia, the MAC16 tumor for passage was selected from donor animals with established weight loss, and treatment was initiated when the average weight loss was 5%. Animals were randomized into groups of six to receive solvent (DMSO (dimethylsulfoxide): PBS (phosphate-buffered saline); 1:20) or the PKR inhibitor at 1 and 5 mg/kg administered daily by s.c. injection. Animals were terminated by cervical dislocation when the body weight loss reached 20%. All animal experiments followed a strict protocol approved by the British Home Office, and the ethical guidelines that were followed meet the standards required by the UKCCR guidelines (Workman, P. et al., Br. J. Cancer, 77:1-10, 1998).
(§3) Samples (approximately 10 mg) of tumor were homogenised in 500 μl of PhosphoSafe™ Extraction Reagent and centrifuged at 15,000 g for 15 min at 4° C. Portions of cytosolic protein (10 μg) were resolved on 10% sodium dodecyl sulphate/polyacrylamide gels (SDS/PAGE; 6% for eIF2α). […] Blots were scanned by a densitometer to quantify differences.

eIF2α = test: Western blot of phospho and total eIF2α in MAC16 tumor from treated mice; type: in vivo, mouse; conditions: mice bearing MAC16 tumor
Text: as §2, §3

20S proteasome = test: Western blot of 20S proteasome α-subunits in MAC16 cells; type: cell-based, mouse; conditions: MAC16 cells (FIG. 5C)
Protocol: as §1

NF-κB = test: EMSA of nuclear NF-κB in MAC16 tumor from treated mice; type: in vivo, mouse; conditions: mice bearing MAC16 tumor, 5 mg/kg for 4 days (FIG. 7B)
Text: as §2
DNA-binding proteins were isolated from tumor samples by hypotonic lysis, followed by high salt extraction of nuclei according to the method of Andrews and Faller (Nucleic Acids Res., 19(9):2499, 1991). EMSA was carried out using a Panomics EMSA “gel shift” kit, according to the manufacturer's instructions

[5] = Toxicity in mice treated with the PKR inhibitor; type: in vivo, mouse; conditions: inhibition of autophosphorylation of PKR in mice
Text: as §2

Compound: CC(C)[C@H](N)C(=O)O [valine]
- loss of body weight of mice bearing MAC-16 tumor (MAC16 tumor): significantly suppress

Compound: COc1cc(/C=C/C(=O)CC(=O)/C=C/c2ccc(O)c(OC)c2)ccc1O [curcumin]
- growth / proliferation of human pancreatic cancer cells [1]: inhibits

Compound: CC(C)C[C@H](N)C(=O)O [leucine]
- loss of body weight of mice bearing MAC-16 tumor (MAC16 tumor): significantly suppress

Compound: O=c1[nH]cc(F)c(=O)[nH]1 [5FU, 5-fluorouracil]
- growth of MAC16 cells, agent alone (MAC16 cells; 5FU alone at concentrations between 1 and 10 μM (FIG. 8)): significant inhibition

Compound: O=C1Nc2ccc3ncsc3c2/C1=C/c1c[nH]cn1 [PKR inhibitor, 8-[1-(1H-imidazol-4-yl)meth-(Z)-ylidene]-6,8-dihydro-thiazol[5,4-e]indol-7-one]
- concentration of maximum inhibition of cell growth (MAC16 cells; MAC16 in vitro, cell number after three days, higher concentrations less effective (FIG. 2)): 200 nM
- effect on 5FU-induced inhibition of growth of MAC16 cells (MAC16 cells; PKR inhibitor at 100 or 200 nM combined with 5FU 1-10 μM (FIG. 8)): significantly potentiated
- effect on gemcitabine-induced inhibition of growth of MAC16 cells (MAC16 cells; PKR inhibitor at 100 or 200 nM combined with gemcitabine (FIG. 8)): potentiated
- effect on growth of the MAC13 tumor in vitro (MAC13 cells): no effect
- effect on total PKR in the cell (PKR [2]; MAC16 cells): In neither cell line was there an effect
- concentration maximally effective in inhibiting PKR (PKR [2]; increasing concentrations have a reduced inhibitory effect): 200 nM
- effect on total PKR in the cell (PKR [3]): In neither cell line was there an effect
- effect on autophosphorylation of PKR (PKR [3]; low levels of autophosphorylation (FIG. 5B)): no effect
- total level of PKR in MAC16 tumor (PKR [4]; 1 or 5 mg/kg daily s.c.): without an effect
- increased phosphorylation of PKR in MAC16 tumor (PKR [4]; 1 or 5 mg/kg daily s.c. (FIG. 4A)): complete attenuation
- total level of eIF2α in MAC16 tumor (eIF2α; 1 or 5 mg/kg daily s.c.): without an effect
- increased phosphorylation of eIF2α in MAC16 tumor (eIF2α; 1 or 5 mg/kg daily s.c. (FIG. 4B)): complete attenuation
- expression of the 20S proteasome (20S proteasome): attenuated
- constitutive activation of NF-κB in the tumor (NF-κB): attenuated
- toxicity in mice [5]: did not produce toxicity
- muscle atrophy in mice bearing the MAC16 tumor (MAC16 tumor; Eley et al, 2007): attenuated
- tumor growth in mice bearing the MAC16 tumor (MAC16 tumor): inhibited

Compound: Nc1ccn([C@@H]2O[C@H](CO)[C@@H](O)C2(F)F)c(=O)n1 [gemcitabine, Gemcitabine]
- growth of MAC16 cells, agent alone (MAC16 cells; gemcitabine alone, 3.8-38 μM (FIG. 8)): inhibition of growth

Compound: CC(C)C[C@H](NC(=O)[C@H](Cc1ccccc1)NC(=O)c1cnccn1)B(O)O [PS-341]
- growth / proliferation of human pancreatic cancer cells [1]: block proliferation

Compound: Oc1ccc(C=Cc2cc(O)cc(O)c2)cc1 [resveratrol]
- tumor growth in mice bearing the MAC16 tumor (MAC16 tumor): inhibited

Reference: patent US20110077198A1, “COMPOSITIONS AND METHODS FOR INHIBITING THE ACTIVATION OF DSRNA-DEPENDENT PROTEIN KINASE AND TUMOR GROWTH INHIBITION” (priority 2007, published 2011)
